From patent US5607926A, “Cephalosporin antibiotics” (Microcide Pharmaceuticals, Inc., priority 1995, dated 1997)
≈ marks a conversion by molar mass, not a printed value. Where a name gives a salt, the structure may show the parent alone. Read-outs that look alike come from different tables or passages of the source.

Key:
Assay type in all cases: cell-based
P. aeruginosa ATCC 27853 = assay: In vitro antibacterial evaluation, MIC by agar dilution, P. aeruginosa ATCC 27853; conditions: Pseudomonas aeruginosa, ATCC27853, read-out: MIC
Protocol: (§1) The compounds of the invention were evaluated against several β-lactamresistant bacteria strains by determining the minimum inhibitory concentration (MIC, μg/ml) of each compound with respect to each strain. The MIC, the lowest concentration of antibiotic which inhibits growth of the test organism, was determined by the agar dilution method.
(§2) To determine the MIC for bacterial isolates, the test compound was incorporated in a series of two-fold dilutions into liquified Mueller-Hinton agar. Upon solidification, a number of different bacterial strains were spot inoculated with a replicating device onto the agar surface. […] The procedures used in these studies have been standardized by the National Committee for Clinical Laboratory Standards (NCCLS), as per the NCCLS publication entitled METHODS FOR DILUTION ANTIMICROBIAL SUSCEPTIBILITY TESTS (1991), which is incorporated herein by reference.
(§3) Aliquots of antimicrobial agents were prepared in phosphate buffered saline (PBS) at pH 7.2. Tween 20 or DMSO was used as a solubilizing vehicle as needed. Standard methods of vortexing, sonicating and gentle heat were used to facilitate solubilizing the test agent. Typically, the concentration of the stock solution was 10× that of the highest drug concentration tested. A 1.28 mg/mL stock solution was used with a subsequent highest working concentration of 128 μg/mL. Serial two-fold dilutions were done through ≤0.25 μg/mL. Each drug level was tested in duplicate. Two-fold drug dilutions were done in sterile 50 mL tubes with a final drug volume of 5 mL. Upon the addition of 45 mL of molten agar, a 10-fold dilution resulted. Two, 25 mL. plates were then poured into 15×150 mm square Petri plates with grids and allowed to harden.
(§4) A control plate with a reference drug, either cefotaxime, vancomycin or imipenem, was used as the positive growth control. Stock concentrations of reference antibiotics were prepared and frozen at -80° C. Upon preparation, the control plates were sealed and stored in the refrigerator for up to 1 week prior to use; however, imipenem control plates had to be prepared just prior to use. All test plates were used within 24 hours of preparation.
(§5) Satisfactory results were obtained where the inoculum contained about 10^4 colony forming units (cfu) ±0.5 logs. Starting with pure cultures of the test isolates on agar plates, a few isolated colonies were transferred to a tube of nutrient broth and allowed to grow 4-6 hours at 35°-36° C. to reach log-phase growth. Dropwise addition of the broth culture to PBS was done to match a 0.5 McFarland turbidity standard equal to 10^8 cfu/mL. This was further diluted ten-fold in PBS to reach a working inoculum concentration of 10^7 cfu/mL. When 1 μL of the working inoculum was applied to the agar surface a concentration of about 10^4 cfu per spot was obtained.
(§6) Disposable sterile 1 μL loops were used to inoculate test plates, with each isolate in a designated grid on the agar plate. An alternate method of inoculation involved the use of a replica plater, a device with 48 steel pins allowing the simultaneous inoculation of multiple isolates. After the spots had dried, the plates were incubated at 35°-36° C. for 16-20 hours. Endpoints were assessed as the minimum inhibitory concentration (MIC) of antimicrobial agent.

[1] = test system: S. aureus 76 (Meth^R)(lac^+); assay: In vitro antibacterial evaluation, MIC by agar dilution, S. aureus 76; conditions: Staphylococcus aureus, read-out: MIC
Protocol: as §1, §2, §3, §4, §5, §6

[2] = test system: S. aureus Col8A (Meth^S)(lac^-); assay: In vitro antibacterial evaluation, MIC by agar dilution, S. aureus Col8A; conditions: Staphylococcus aureus
Protocol: as §1, §2, §3, §4, §5, §6
The novel agents of this invention are notable for their enhanced activity against S. aureus Col and Enterococci (E. faecium and E. faecalis). The S. aureus Col strain is a high-level PBP2a producer, whereas S. aureus Col 8A, its isogenic partner, lacks PBP2a. […] Thus, the compounds of the present invention are effective against PBP2a-producing bacteria.

S. aureus ATCC 29213 = assay: In vitro antibacterial evaluation, MIC by agar dilution, S. aureus ATCC 29213; conditions: Staphylococcus aureus, ATCC29213
Protocol: as §1, §2, §3, §4, §5, §6

E. coli ATCC 25922 = assay: In vitro antibacterial evaluation, MIC by agar dilution, E. coli ATCC 25922; conditions: Escherichia coli, ATCC25922, read-out: MIC
Protocol: as §1, §2, §3, §4, §5, §6

E. faecium ATCC 35667 = assay: In vitro antibacterial evaluation, MIC by agar dilution, E. faecium ATCC 35667; conditions: Enterococcus faecium, ATCC35667, read-out: MIC
Protocol: as §1, §2, §3, §4, §5, §6

S. haemolyticus (Meth^R) = assay: In vitro antibacterial evaluation, MIC by agar dilution, S. haemolyticus; conditions: Staphylococcus haemolyticus, read-out: MIC
Protocol: as §1, §2, §3, §4, §5, §6

E. faecalis ATCC 29212 = assay: In vitro antibacterial evaluation, MIC by agar dilution, E. faecalis ATCC 29212; conditions: Enterococcus faecalis, ATCC29212; E. faecalis ATCC 29212; read-out: MIC
Protocol: as §1, §2, §3, §4, §5, §6

[3] = S. aureus ATCC 29213, read-out: MIC

SMILES | MIC (P. aeruginosa ATCC 27853) [µg/mL] | MIC [1] [µg/mL] | MIC [2] [µg/mL] | MIC (S. aureus ATCC 29213; [3]) [µg/mL] | MIC (E. coli ATCC 25922) [µg/mL] | MIC (E. faecium ATCC 35667) [µg/mL] | MIC (S. haemolyticus (Meth^R)) [µg/mL] | MIC (E. faecalis ATCC 29212) [µg/mL] | MIC (S. aureus ATCC 29213) [µg/mL]
N=C(NC1CC1)SCc1ccccc1SC1=C(C(=O)O)N2C(=O)[C@@H](NC(=O)Cc3ccccc3)[C@H]2SC1 [Cmpd 79, (7R)-7-[(Phenylacetyl)amino]-3-(2-N-cyclopropylisothiouroniummethylphenylthio)-3-cephem-4-carboxylate, inner salt] | > 32 | 8 | 0.06 | 0.06 | > 32 | 2 | 32 | 1 | –
N=C(N)SCc1ccccc1SC1=C(C(=O)O)N2C(=O)[C@@H](NC(=O)Cc3ccc(O)cc3)[C@H]2SC1 [Cmpd 99, (7R)-7-[((4-Hydroxyphenyl)acetyl)amino]-3-(2-isothiouroniummethylphenylthio)-3-cephem-4-carboxylic acid, inner salt] | > 32 | 16 | – | 0.125 | > 32 | 1 | 16 | 1 | –
N=C(N)SCc1ccccc1SC1=C(C(=O)O)N2C(=O)[C@@H](NC(=O)CSCCCI)[C@H]2SC1 [Cmpd 134, (7R)-7-[(3-iodoprop-1-ylthioacetyl)amino]-3-(2-isothiouroniummethylphenylthio)-3-cephem-4-carboxylate, inner salt] | > 32 | 8 | 0.125 | – | > 32 | 1 | 16 | 0.5 | 0.125
COc1ccc(-n2nccc2SC2=C(C(=O)O)N3C(=O)[C@@H](NC(=O)Cc4ccccc4)[C@H]3SC2)cc1 [Cmpd 114, (7R)-7-[(Phenylacetyl)amino]-3-(1-N-(4-methoxyphenyl)pyrazol-5-ylthio)-3-cephem-4-carboxylic acid] | > 32 | 16 (≈ 30.6 µM) | 0.125 (≈ 0.239 µM) | 0.25 (≈ 0.478 µM) | > 32 | 2 (≈ 3.83 µM) | 32 (≈ 61.2 µM) | 1 (≈ 1.91 µM) | –
O=C(Cc1ccccc1)N[C@@H]1C(=O)N2C(C(=O)O)=C(Sc3ccccc3-n3cccn3)CS[C@H]12 [Cmpd 132, (7R)-7-[(Phenylacetyl)amino]-3-(2-(pyrazol-1-yl)phenylthio)-3-cephem-4-carboxylic acid] | > 32 | 32 (≈ 65 µM) | 0.25 (≈ 0.508 µM) | 0.125 (≈ 0.254 µM) | > 32 | 4 (≈ 8.12 µM) | > 32 | 4 (≈ 8.12 µM) | –
O=C(Cc1ccccc1)N[C@@H]1C(=O)N2C(C(=O)O)=C(Sc3ccnn3-c3cccc([N+](=O)[O-])c3)CS[C@H]12 [Cmpd 113, (7R)-7-[(Phenylacetyl)amino]-3-(1-N-(3-nitrophenyl)pyrazol-5-ylthio)-3-cephem-4-carboxylic acid] | > 32 | 16 (≈ 29.8 µM) | 0.125 (≈ 0.233 µM) | – | > 32 | 4 (≈ 7.44 µM) | > 32 | 1 (≈ 1.86 µM) | 0.125 (≈ 0.233 µM)
NCc1ccccc1CC(=O)N[C@@H]1C(=O)N2C(C(=O)O)=C(Sc3ccnn3-c3ccccc3)CS[C@H]12 [Cmpd 96, (7R)-7-[((2-aminomethylphenyl)acetyl)amino]-3-(1-N-phenylpyrazol-5-ylthio)-3-cephem-4-carboxylic acid] | > 32 | 16 (≈ 30.7 µM) | 0.5 (≈ 0.959 µM) | 0.25 (≈ 0.479 µM) | > 32 | 4 (≈ 7.67 µM) | 16 (≈ 30.7 µM) | 1 (≈ 1.92 µM) | –
COc1cccc(-n2nccc2SC2=C(C(=O)O)N3C(=O)[C@@H](NC(=O)Cc4ccccc4)[C@H]3SC2)c1 [Cmpd 117, (7R)-7-[(Phenylacetyl)amino]-3-(1-N-(3-methoxyphenyl)pyrazol-5-ylthio)-3-cephem-4-carboxylic acid] | > 32 | 16 (≈ 30.6 µM) | 0.125 (≈ 0.239 µM) | 0.25 (≈ 0.478 µM) | > 32 | 1 (≈ 1.91 µM) | 32 (≈ 61.2 µM) | 2 (≈ 3.83 µM) | –
N=C(N)SCc1ccccc1SC1=C(C(=O)O)N2C(=O)[C@@H](NC(=O)/C(=N\O)c3ccccc3)[C@H]2SC1 [Cmpd 136, (7R)-7-[(Z)-2-(Phenyl)-2-(hydroxyimino)acetamido]-3-(2-isothiouroniummethylphenylthio)-3-cephem-4-carboxylate, inner salt] | > 32 | 4 | – | 0.125 | > 32 | 1 | 4 | 0.5 | –
N=C(N)SCCc1ccccc1SC1=C(C(=O)O)N2C(=O)[C@@H](NC(=O)Cc3ccccc3)[C@H]2SC1 [Cmpd 100, (7R)-7-[(Phenylacetyl)amino]-3-(2-(2-isothiouronium)ethylphenylthio)-3-cephem-4-carboxylate, inner salt] | > 32 | 8 | – | < 0.06 | > 32 | 4 | 16 | 1 | –
N=C(N)SCc1ccccc1SC1=C(C(=O)O)N2C(=O)[C@@H](NC(=O)/C(=N\O)c3csc(N)n3)[C@H]2SC1 [Cmpd 129, (7R)-7-[(Z)-2-(Aminothiazol-4-yl)-2-(hydroxyimino)acetamido]-3-(2-isothiouroniummethylphenylthio)-3-cephem-4-carboxylate, inner salt] | > 32 | 8 | ≤ 0.06 | ≤ 0.06 | 2 | – | 16 | 0.25 | –
Nc1nc(/C(=N/OCCF)C(=O)N[C@@H]2C(=O)N3C(C(=O)O)=C(Sc4ccnn4-c4ccccc4)CS[C@H]23)c(Cl)s1 [Cmpd 98, (7R)-7-[(Z)-2-(2-amino-5-chlorothiazol-4-yl)-2-(2-fluoroethyloxyimino)acetamido]-3-(1-N-phenylpyrazol-5-ylthio)-3-cephem-4-carboxylic acid] | 16 (≈ 25.6 µM) | 8 (≈ 12.8 µM) | – | 0.5 (≈ 0.801 µM) | 8 (≈ 12.8 µM) | 4 (≈ 6.41 µM) | 8 (≈ 12.8 µM) | 1 (≈ 1.6 µM) | –
O=C(COc1ccccc1)N[C@@H]1C(=O)N2C(C(=O)O)=C(Sc3ccnn3-c3ccccc3)CS[C@H]12 [Cmpd 112, (7R)-7-[(phenyloxyacetyl)amino]-3-(1-N-phenylpyrazol-5-ylthio) -3-cephem-4-carboxylic acid] | > 32 | 16 (≈ 31.5 µM) | – | – | > 32 | 4 (≈ 7.87 µM) | 32 (≈ 62.9 µM) | 4 (≈ 7.87 µM) | –
CSCC(=O)N[C@@H]1C(=O)N2C(C(=O)O)=C(Sc3ccccc3CSC(=N)NC(=N)N)CS[C@H]12 [Cmpd 126, (7R)-7-[(methylthioacetyl)amino]-3-(2-(N-amidino)isothiouroniummethylphenylthio)-3-cephem-4-carboxylate, inner salt] | > 32 | 16 | 0.125 | – | > 32 | 2 | – | 1 | 0.125
N=C(N)NCc1ccccc1SC1=C(C(=O)O)N2C(=O)[C@@H](NC(=O)Cc3ccccc3)[C@H]2SC1 [Cmpd 128, (7R)-7-[(Phenylacetyl)amino]-3-(2-guanidiniummethylphenylthio)-3-cephem-4-carboxylate, inner salt] | > 32 | 16 | ≤ 0.06 | ≤ 0.06 | > 32 | 2 | – | 2 | –
